This note sets out measurements from ChEMBL document CHEMBL1201862, “PubChem BioAssay data set” (2004).

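Tested at 5 concentrations; 48 h exposure; 96-well plates; endpoints linearly interpolated, else capped at highest concentration. Abbreviation: GI50, concentration required for 50% inhibition of growth.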 Activity calls are given as the source filed them. Rule as the data show it: active = GI50 up to about 1.1 µM and inactive = higher. Some results are limits rather than exact numbers.

Common to all, as to experiment: DTP human tumour cell line panel, 48 h
Assay [1] relates to HCT-116.
For assay [2], the system named is HT-29.
The test system of assay [3] is UACC-62.
The subject of assay [4] is MOLT-4.
The test system of assay [5] is SK-MEL-28.
The subject of assay [6] is COLO 205.
The test system of assay [7] is RPMI-8226.
In assay [8] the test system is A549.
Assay [9] has as its system SF-539.
Assay [10] deals with TK-10.
Assay [11] relates to SF-295.
Assay [12] has as its system HOP-92.
The test system of assay [13] is EKVX.
The test system of assay [14] is KM12.
For assay [15], the system named is UACC-257.
The subject of assay [16] is UO-31.
In assay [17] the test system is SNB-75.
For assay [18], the system named is HOP-62.

What is called GI50 is the concentration that inhibits growth by half. In the case of `CC(=O)N1[C@H](C(=O)O)CS[C@H]1c1ccncc1`, the GI50 in assay [1], in assay [2], in [3], in assay [4], in assay [5] and in [6] was > 100 µM (inactive) in each case. Besides, the GI50 in [7], in assay [8], in assay [9], in assay [10], in assay [11] and in [12] was > 100 µM (inactive) each time. Besides, the GI50 in [13], in assay [14], in assay [15], in assay [16], in assay [17] and in assay [18] was > 100 µM (inactive) throughout.

Turning to `NC(=O)/C(=N\NC(=O)c1cc2ccccc2cc1O)C1C(=O)N(c2ccccc2)N=C1N` (centres undefined), the GI50 is 27.2 µM (inactive) in [1]; 44.2 µM (inactive) in assay [2]; 15.2 µM (inactive) in assay [3]; 21.4 µM (inactive) in [4]; 73.6 µM (inactive) in assay [5]; 28.8 µM (inactive) in [6]. Further, the GI50 is 13.8 µM (inactive) in assay [7]; 30.6 µM (inactive) in assay [8]; > 100 µM (inactive) in assay [10]; 33 µM (inactive) in assay [11]; 22.3 µM (inactive) in [12]; 32.2 µM (inactive) in [13]. Also, the GI50 in [14] is 35.6 µM (inactive); in assay [15] it was 23.4 µM (inactive); in assay [16], 7.73 µM (inactive); in assay [17] it was 20.5 µM (inactive); in [18], 34 µM (inactive).

Consider `CCOC(=O)Cc1ccc2c(c1O)C(=O)c1c(ccc(CC(=O)OCC)c1O)C2=O`, for which the GI50 was > 100 µM (inactive) in assay [1]; > 100 µM (inactive) in assay [2]; > 100 µM (inactive) in assay [3]; 87.9 µM (inactive) in assay [4]; 96.2 µM (inactive) in [5]; > 100 µM (inactive) in assay [6]. Also, the GI50 in [7] was > 100 µM (inactive); in [8], > 100 µM (inactive); in assay [9] it was > 100 µM (inactive); in [10] it was 31.9 µM (inactive); in assay [11], > 100 µM (inactive); in [12] it was > 100 µM (inactive). In addition, the GI50 in assay [13], in assay [14], in [15], in [16], in [17] and in assay [18] was > 100 µM (inactive) in each case.

Regarding `O=C(Nc1cc([N+](=O)[O-])cc([N+](=O)[O-])c1)OC1C2CCC1C1OC1C2` (centres undefined), the GI50 in assay [1] was 35.8 µM (inactive); in assay [3], > 50 µM (inactive); in assay [4], 34.5 µM (inactive); in assay [5], > 50 µM (inactive); in assay [6] it was > 50 µM (inactive); in assay [7], 22.6 µM (inactive). Also, the GI50 in assay [8], in assay [9], in [10], in assay [11], in assay [12] and in assay [13] was > 50 µM (inactive) each time. Moreover, the GI50 in [14] is 29.1 µM (inactive); in assay [15] it was 32.4 µM (inactive); in assay [16] it was 19.9 µM (inactive); in [17], 23.7 µM (inactive); in [18], > 50 µM (inactive).

For `CCCCCC(C[N+]1(C)CCOCC1)C(=O)/C=C/c1ccccc1` (centres undefined), the GI50 was 3.41 µM (inactive) in assay [1]; 5.31 µM (inactive) in assay [2]; 9.59 µM (inactive) in [3]; 3.03 µM (inactive) in [4]; 16.2 µM (inactive) in assay [5]; 15.7 µM (inactive) in assay [6]. Also, the GI50 is 1.54 µM (inactive) in [7]; 22.9 µM (inactive) in [8]; 9.79 µM (inactive) in assay [9]; 20.3 µM (inactive) in assay [10]; 7.74 µM (inactive) in assay [11]; 18.7 µM (inactive) in assay [12]. The GI50 in [13] was 19.9 µM (inactive); in assay [14], 2.8 µM (inactive); in assay [15] it was 13.4 µM (inactive); in [16], 16.1 µM (inactive); in [17], 7.33 µM (inactive); in assay [18], 30 µM (inactive).

For `CN(C)C=[N+]=[N-]`, the GI50 in assay [1], in assay [2], in assay [3], in [4], in [6] and in assay [7] was > 100 µM (inactive) in each case. Further, the GI50 in [8], in assay [9], in assay [10], in assay [11], in [12] and in assay [13] was > 100 µM (inactive) in each case. Besides, the GI50 in [14], in assay [15], in [16], in [17] and in assay [18] was > 100 µM (inactive) throughout.

Regarding `CCOc1ccccc1C=C1c2ccccc2C(=O)c2ccccc21`, the GI50 in assay [1] was 4.63 µM (inactive); in assay [3], 3.34 µM (inactive); in assay [4], 4.3 µM (inactive); in assay [5], 12 µM (inactive); in assay [6], 3.78 µM (inactive); in [7], 3.81 µM (inactive). For the same compound, the GI50 is 5.16 µM (inactive) in assay [8]; 2.16 µM (inactive) in [9]; 4.56 µM (inactive) in assay [10]; 3.82 µM (inactive) in [11]; 5.48 µM (inactive) in [12]; 3.23 µM (inactive) in assay [13]. The GI50 is 0.673 µM (active) in assay [14]; 4.21 µM (inactive) in assay [15]; 2.59 µM (inactive) in [16]; 2.17 µM (inactive) in assay [17]; 3.76 µM (inactive) in [18].

With `S=P1(c2ccccc2)Nc2ccc(Cl)cc2N1` (centres undefined), the GI50 was > 100 µM (inactive) in [2]; 8.09 µM (inactive) in assay [3]; 20 µM (inactive) in [4]; > 100 µM (inactive) in assay [5]; 19.9 µM (inactive) in [6]; 4.68 µM (inactive) in assay [7]. In addition, the GI50 is > 100 µM (inactive) in assay [8]; > 100 µM (inactive) in assay [9]; > 100 µM (inactive) in [10]; > 100 µM (inactive) in assay [11]; 20.2 µM (inactive) in [12]; > 100 µM (inactive) in assay [13]. The GI50 was 88.9 µM (inactive) in [14], > 100 µM (inactive) in assay [15], 56.4 µM (inactive) in assay [16] and > 100 µM (inactive) in assay [18].

With `CCOC(=O)C(C)c1c(C(=O)c2ccc(C)nc2)c2ccccc2n1C` (centres undefined), the GI50 in assay [2] is > 100 µM (inactive); in assay [3] it was > 100 µM (inactive); in assay [4] it was > 100 µM (inactive); in assay [5], > 100 µM (inactive); in assay [6], > 100 µM (inactive); in [7], 72.1 µM (inactive). Besides, the GI50 in assay [8] was > 100 µM (inactive); in assay [10] it was > 100 µM (inactive); in [11] it was > 100 µM (inactive); in [12] it was 82.8 µM (inactive); in assay [13] it was > 100 µM (inactive); in [14] it was > 100 µM (inactive). Besides, the GI50 was > 100 µM (inactive) in assay [15], 33.3 µM (inactive) in assay [17] and > 100 µM (inactive) in [18].

`CCOC(=O)C1=C(NC)OC/C1=N\NC(=O)c1ccccc1O`: the GI50 is 9.29 µM (inactive) in assay [1]; 7.03 µM (inactive) in assay [3]; 22.9 µM (inactive) in assay [4]; 30.8 µM (inactive) in [5]; > 100 µM (inactive) in [6]; 32.3 µM (inactive) in assay [7]. Also, the GI50 in assay [8] was 32.1 µM (inactive); in [9] it was 13 µM (inactive); in [10] it was > 100 µM (inactive); in assay [11], 50.9 µM (inactive); in assay [12], 26.1 µM (inactive); in assay [13] it was 44.6 µM (inactive). Moreover, the GI50 in assay [14] is 53.2 µM (inactive); in [15], 1.49 µM (inactive); in assay [16], 4.83 µM (inactive); in assay [17], 69.3 µM (inactive); in [18] it was 28 µM (inactive).

For the compound `COc1cc2c3c(c1OC)/C(=N/OS(=O)(=O)c1ccc(C)cc1)CC3N(S(=O)(=O)c1ccc(C)cc1)CC2` (centres undefined), the GI50 in assay [1], in [2], in assay [3], in assay [5], in [6] and in [7] was > 100 µM (inactive) throughout. Further, the GI50 in assay [8], in assay [9], in [10], in assay [11], in assay [12] and in assay [13] was > 100 µM (inactive) throughout. Also, the GI50 was > 100 µM (inactive) in [14]; > 100 µM (inactive) in assay [15]; > 100 µM (inactive) in assay [16]; 70.5 µM (inactive) in [17]; > 100 µM (inactive) in [18].

Turning to `O=C(O)C1=CCCc2ccc3ccccc3c21`, the GI50 in assay [1], in assay [2], in [3], in assay [4], in assay [5] and in assay [6] was > 100 µM (inactive) each time. Further, the GI50 in assay [7], in assay [8], in [9], in [10], in [11] and in [12] was > 100 µM (inactive) throughout. Further, the GI50 in assay [13] was > 100 µM (inactive); in [14], > 100 µM (inactive); in assay [15], > 100 µM (inactive); in [16], > 100 µM (inactive); in assay [17] it was 85.3 µM (inactive).
